Measured values published in patent US7132421B2, “CIS-imidazoles” (Hoffmann-La Roche Inc., priority 2003, dated 2006).
pIC50: −log10 of the molar value.

These compounds were tested against interaction between p53 and MDM2 proteins (recombinant GST-tagged MDM2) (Homo sapiens, UniProt Q00987) (assay: ELISA of inhibition of p53-MDM2 interaction (GST-tagged MDM2 binding to immobilized p53-like peptide)). Settings: absorption at 450 nm, triplicate.
Chain of interaction between p53 and MDM2 proteins (recombinant GST-tagged MDM2) (Q00987 whole entry): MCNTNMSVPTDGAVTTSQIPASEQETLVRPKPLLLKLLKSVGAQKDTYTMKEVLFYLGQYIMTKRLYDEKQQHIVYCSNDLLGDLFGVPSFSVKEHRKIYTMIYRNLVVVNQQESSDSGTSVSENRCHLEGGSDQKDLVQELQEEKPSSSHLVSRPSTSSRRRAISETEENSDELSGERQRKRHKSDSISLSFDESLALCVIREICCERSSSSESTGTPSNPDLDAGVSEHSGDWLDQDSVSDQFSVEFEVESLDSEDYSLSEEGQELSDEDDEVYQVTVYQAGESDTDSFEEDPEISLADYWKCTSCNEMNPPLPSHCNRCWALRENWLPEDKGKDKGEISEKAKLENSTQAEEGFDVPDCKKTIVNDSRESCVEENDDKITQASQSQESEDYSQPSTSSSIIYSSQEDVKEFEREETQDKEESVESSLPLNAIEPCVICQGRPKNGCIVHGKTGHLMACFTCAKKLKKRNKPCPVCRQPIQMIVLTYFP

Row | SMILES | pIC50
1 | CCOc1cc(OC)ccc1C1=N[C@H](CC2CCCC2)[C@H](c2ccc(Cl)cc2)N1C(=O)N1CCC(N2CCCC2)CC1 (relative stereo) [Example 28, [5-(4-Chloro-phenyl)-4-cyclopentylmethyl-2-(2-ethoxy-4-methoxy-phenyl)-4,5-dihydro-imidazol-1-yl]-(4-pyrrolidin-1-yl-piperidin-1-yl)-methanone] | 5.26
2 | CCCCC[C@H]1N=C(c2ccc(OC)cc2OCC)N(C(=O)N2CCC(N3CCCC3)CC2)[C@H]1c1ccc(Cl)cc1 (relative stereo) [Example 55, [5-(4-Chloro-phenyl)-2-(2-ethoxy-4-methoxy-phenyl)-4-pentyl-4,5-dihydro-imidazol-1-yl]-(4-pyrrolidin-1-yl-piperidin-1-yl)-methanone] | 6.15
3 | CCOc1cc(OC)ccc1C1=N[C@H](CC2CCCC2)[C@H](c2ccc(Cl)cc2)N1C(=O)N1CCN(C)CC1 (stereo in doubt) [Example 24, [5-(4-Chloro-phenyl)-4-cyclopentylmethyl-2-(2-ethoxy-4-methoxy-phenyl)-4,5-dihydro-imidazol-1-yl]-(4-methyl-piperazin-1-yl)-methanone] | 4.88
4 | CCC[C@H]1N=C(c2ccc(OC)cc2OCC)N(C(=O)N2CCC(N3CCCC3)CC2)[C@H]1c1ccc(Cl)cc1 (stereo in doubt) [Example 26, [5-(4-Chloro-phenyl)-2-(2-ethoxy-4-methoxy-phenyl)-4-propyl-4,5-dihydro-imidazol-1-yl]-(4-pyrrolidin-1-yl-piperidin-1-yl)-methanone] | 4.35
